# Source: patent US9675606B2, “2-amino-3-(imidazol-2-yl)-pyridin-4-one derivatives and their use as VEGF receptor kinase inhibitors” (SANOFI, priority 2011, dated 2017)
# pIC50: −log10 of the molar value.
# Key:
# VEGFR-3 [1] = biological target: T1, VEGFR-3 (Homo sapiens, UniProt P35916); test: Ex vivo assay: VEGFR-3 autophosphorylation in HEK cells incubated with plasma of mice dosed p.o.; parameters: species or system male Balb/c mice; details: HEK293, mouse; 6 h after single oral administration of 30 mg/kg to male Balb/c mice; transfected HEK cells incubated with plasma (10%); read-out: Ex vivo inhibition (%) At the time
# T1 construct: expressed in transfected cells; host or cells: HEK293T cells, transient transfection with Fugene-6
# T1 sequence (P35916 25-1363, species assumed): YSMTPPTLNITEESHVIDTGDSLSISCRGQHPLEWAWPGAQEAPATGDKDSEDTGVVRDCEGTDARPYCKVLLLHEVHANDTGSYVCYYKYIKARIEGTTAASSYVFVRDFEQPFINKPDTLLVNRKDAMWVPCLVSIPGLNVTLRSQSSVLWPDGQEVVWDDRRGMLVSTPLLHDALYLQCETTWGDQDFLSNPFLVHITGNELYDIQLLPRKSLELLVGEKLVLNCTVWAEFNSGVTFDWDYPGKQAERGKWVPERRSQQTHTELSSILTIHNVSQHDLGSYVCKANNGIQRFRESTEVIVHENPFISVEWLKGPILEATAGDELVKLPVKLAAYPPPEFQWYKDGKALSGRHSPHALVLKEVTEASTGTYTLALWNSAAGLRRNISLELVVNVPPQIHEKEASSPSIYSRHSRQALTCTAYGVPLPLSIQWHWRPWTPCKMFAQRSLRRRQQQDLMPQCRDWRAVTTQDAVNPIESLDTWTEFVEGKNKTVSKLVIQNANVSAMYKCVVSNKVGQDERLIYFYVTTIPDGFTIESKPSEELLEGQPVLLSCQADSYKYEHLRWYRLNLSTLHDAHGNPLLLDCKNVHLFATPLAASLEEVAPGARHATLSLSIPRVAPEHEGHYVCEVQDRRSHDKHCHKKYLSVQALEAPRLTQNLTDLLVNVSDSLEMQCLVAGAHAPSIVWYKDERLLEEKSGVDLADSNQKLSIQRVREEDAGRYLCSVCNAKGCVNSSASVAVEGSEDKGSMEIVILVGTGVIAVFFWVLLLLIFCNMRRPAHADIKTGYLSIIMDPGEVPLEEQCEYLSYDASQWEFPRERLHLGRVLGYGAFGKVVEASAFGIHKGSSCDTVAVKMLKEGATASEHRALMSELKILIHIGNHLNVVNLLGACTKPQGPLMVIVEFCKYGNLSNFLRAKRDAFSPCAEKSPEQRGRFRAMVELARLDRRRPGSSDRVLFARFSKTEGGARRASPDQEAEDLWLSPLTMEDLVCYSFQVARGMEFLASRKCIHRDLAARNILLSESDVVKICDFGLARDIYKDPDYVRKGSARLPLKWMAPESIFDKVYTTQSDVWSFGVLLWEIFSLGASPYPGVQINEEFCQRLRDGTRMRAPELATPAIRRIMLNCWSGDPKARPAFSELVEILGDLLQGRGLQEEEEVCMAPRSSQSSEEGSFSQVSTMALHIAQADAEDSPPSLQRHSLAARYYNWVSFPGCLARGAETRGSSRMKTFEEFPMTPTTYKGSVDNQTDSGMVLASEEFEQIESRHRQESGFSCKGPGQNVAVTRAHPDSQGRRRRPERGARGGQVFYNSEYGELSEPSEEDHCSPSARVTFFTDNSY
# Procedure: Protocol for administration of the products to the mice:
# The products are prepared in a mortar with 0.5% Tween 80 and 0.6% methylcellulose qs final volume. The suspensions are administered by gavage (10 ml/kg) to male Balb/c mice 8 to 15 weeks old. Three hours or 6 hours after single oral administrations of 30 mg/kg, animals were anaesthetized with pentobarbital and blood samples (400 μL) were collected from cava vein and transferred into glass tubes containing lithium heparin. After centrifugation (1500-2000 g for 10 minutes), plasma samples were frozen at a temperature close to −20° C. until analysis.
# In order to detect the ex vivo activity of the products in the plasmas, we have used the autophosphorylation assay in HEK cells described earlier. For this purpose, transfected cells were incubated with plasma (10%) instead of compounds. Results are expressed as percent of inhibition of VEGFR-3 autophosphorylation in comparison to untreated cells (maximum autophosphorylation) and to untransfected cells (background).
# Results are expressed as a percentage of inhibition of VEGFR-3 auto-phosphorylation of in HEK cells, in presence of a plasma sample collected (at a time), after per os (p.o.) administration of compounds. In order to evaluate the increase of this activity for compounds of the invention, a comparison with compounds of the prior art (WO 2009/007535) and subjected to the same measurement is made in table 3.
# VEGFR-3 [2] = biological target: T1, VEGFR-3; test: Effect of compounds on VEGFR-3 auto-phosphorylation in HEK cells (ELISA); assay type: cell-based; details: autophosphorylation of VEGFR-3-Flag overexpressed in HEK293T cells, 1 h incubation with compound
# Procedure: Effect of Compounds on VEGFR-3 Auto-Phosphorylation in HEK Cells
# The effects of compounds in blocking VEGFR-3 autophosphorylation were quatified by ELISA after Overexpression of VEGFR-3 in HEK cells. HEK293T cells were maintained in MEM supplemented with 10% foetal calf serum (FCS) and glutamine. The day before transfection, […] were seeded on 48 wells plates and transfection was done using Fugene-6 (Roche, Basel). Fugene-6 (18 μL) was preincubated for 5 min with 282 μl of optimem. Then 3 μg DNA corresponding VFGR-3-Flag was added and left at room temperature during 10 min before distributing 200 μl on HEK cells. After 24 h, the medium was removed and replaced by a new one without serum and incubated for 1 h with different concentrations (ranging from 3 to 1000 nM) of each compound. After additional 30 min incubation with Orthovanadate (0.4 mM), cells were washed with cold PBS supplemented by orthovanadate and then lysed with 300 μl of RIPA buffer. Lysates were then centrifuged during 10 min at 10000 g. Supernatants (75 μl) were distributed in duplicate on 96 well plate precoated with the anti-Flag and left during 1 hour at room temperature. After 3 washes with TBS buffer containing 0.5% tween 20, the anti-phospho-tyrosine conjugated to the HRP was added and incubated for 1 hour at room temperature. Wells were then washed 3 times with TBS buffer containing tween 20 (0.5%) and MgCl2 (2 mM). The reaction was stopped with 50 μl of H2SO4 (2 N) and the signal was read at Envision at 485 and 530.
# The concentration-response curves were analyzed with internal software Biost@t-SPEED v2.0 using the 4-parameter logistic model according to Ratkovsky and Reedy (Ratkovsky D A., Reedy T J. Choosing near-linear parameters in the four parameters logistic model radioligands and related assays. Biometrics 1986 September 42(3):575-82.)
inhibition at 30 mg/kg (VEGFR-3 [1]) [%],pIC50 (VEGFR-3 [2]),SMILES
86,7.35,"CCn1c(N)c(-c2nc(C)c[nH]2)c(=O)c2ccc(C#C[C@@](C)(O)COC)nc21 [Compound 5, 2-Amino-1-ethyl-7-[(3R)-3-hydroxy-4-methoxy-3-methylbut-1-yn-1-yl]-3-(4-methyl-1H-imidazol-2-yl)-1,8-naphthyridin-4(1H)-one]"
23,7.39,"CCn1c(N)c(-c2ncc[nH]2)c(=O)c2ccc(C#CC3(O)CCC3)nc21 [Compound 13, 2-Amino-1-ethyl-7-[(1-hydroxycyclobutyl)ethynyl]-3-(1H-imidazol-2-yl)-1,8-naphthyridin-4(1H)-one]"
